Assay results published in US8722849B2, “Polypeptides” (Novo Nordisk A/S, priority 2011, dated 2014).
Converted amounts (≈) assume the structure as drawn. Read-outs that look alike come from different tables or passages of the source. Starred links: 1 amine or outer side, 2 acyl side, 3 side chain; linkers in the order of their positions; H or OH if unused. Positions of bridges follow the written chain, without caps; N, C: chain ends. Residues, ends and D or L forms follow the SMILES beside them. *: point of attachment. C20 diacid = O=C(O)CCCCCCCCCCCCCCCCCCC(=O)*; C18 diacid = O=C(O)CCCCCCCCCCCCCCCCC(=O)*; γGlu = O=C(O)[C@H](CCC(=O)[*:2])N[*:1]

Assay: Assay (IV) determination of solubility
Format: physicochemical
Outline: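 Polypeptide in water (~500 nmol/ml stock) was mixed 1:1 with 100 mM buffers from pH 3.0 to 8.0 (glycylglycine pH 3.0–5.0; bistrispropane pH 6.0–8.0). After 18 hours at room temperature, samples were centrifuged and the polypeptide remaining in solution was quantified by HPLC.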

[1] = bistrispropane buffer, pH 6, pH 6.0, read-out: Solubility pH 6.0
[2] = bistrispropane buffer, pH 6.5, pH 6.5, read-out: Solubility pH 6.5
[3] = bistrispropane buffer, pH 7, pH 7.0, 18 hours at room temperature, Table 3, read-out: Solubility pH 7.0
[4] = bistrispropane buffer, pH 7, pH 7.0, read-out: Solubility pH 7.0
[5] = bistrispropane buffer, pH 7.5, pH 7.5, read-out: Solubility pH 7.5
[6] = bistrispropane buffer, pH 8, pH 8.0, read-out: Solubility pH 8.0
[7] = glycylglycine buffer, pH 3, pH 3.0, read-out: Solubility pH 3.0
[8] = glycylglycine buffer, pH 4, pH 4.0, 18 hours at room temperature, Table 2, read-out: Solubility pH 4.0
[9] = glycylglycine buffer, pH 4, pH 4.0, read-out: Solubility pH 4.0
[10] = glycylglycine buffer, pH 5, pH 5.0, read-out: Solubility pH 5.0

| SMILES | solubility at 18 h [1] [µM] | solubility at 18 h [2] [µM] | solubility at 18 h [3] [µM] | solubility at 18 h [4] [µM] | solubility at 18 h [5] [µM] | solubility at 18 h [6] [µM] | solubility at 18 h [7] [µM] | solubility at 18 h [8] [µM] | solubility at 18 h [9] [µM] | solubility at 18 h [10] [µM] | solubility at 18 h (bistrispropane buffer, pH 7, pH 7.0, Table 8, read-out: Solubility pH 7.0) [µM] | solubility at 18 h (bistrispropane buffer, pH 7, pH 7.0, Table 9, read-out: Solubility pH 7.0) [µM] | solubility at 18 h (bistrispropane buffer, pH 7.5, pH 7.5, Table 9, read-out: Solubility pH 7.5) [µM] |
| --- | --- | --- | --- | --- | --- | --- | --- | --- | --- | --- | --- | --- | --- |
| CC[C@H](C)[C@H](NC(=O)[C@@H]1CCCN1C(=O)CNC(=O)[C@H](Cc1ccccc1)NC(=O)[C@H](CC(N)=O)NC(=O)[C@H](CC(N)=O)NC(=O)[C@H](CO)NC(=O)[C@H](CO)NC(=O)[C@H](Cc1c[nH]cn1)NC(=O)[C@H](Cc1c[nH]cn1)NC(=O)[C@H](CC(C)C)NC(=O)[C@H](Cc1ccccc1)NC(=O)[C@H](CCC(=O)O)NC(=O)[C@H](C)NC(=O)[C@H](CC(C)C)NC(=O)[C@H](CCCNC(=N)N)NC(=O)[C@H](CCC(N)=O)NC(=O)[C@@H](NC(=O)[C@H](C)NC(=O)[C@@H]1CSSC[C@H](NC(=O)[C@H](Cc2c[nH]cn2)NC(=O)CC[C@H](NC(=O)CCCCCCCCCCCCCCCCC(=O)O)C(=O)O)C(=O)N[C@@H](CC(N)=O)C(=O)N[C@@H]([C@@H](C)O)C(=O)N[C@@H](C)C(=O)N[C@@H]([C@@H](C)O)C(=O)N1)[C@@H](C)O)C(=O)N[C@@H](CC(C)C)C(=O)N1CCC[C@H]1C(=O)N1CCC[C@H]1C(=O)N[C@H](C(=O)N[C@@H](CC(N)=O)C(=O)N[C@H](C(=O)NCC(=O)N[C@@H](CO)C(=O)N[C@@H](CC(N)=O)C(=O)N[C@H](C(=O)N[C@@H](Cc1ccc(O)cc1)C(N)=O)[C@@H](C)O)C(C)C)[C@@H](C)O [Example 48, N-alpha-[(S)-4-Carboxy-4-(17-carboxyheptadecanoylamino)butyryl]-[His1,Glu14,His17]-pramlintide] ({C18 diacid-γGlu}-HCNTATCATQRLAEFLHHSSNNFGPILPPTNVGSNTY-NH2; disulfide 2-7 (inferred)) | > 200 | 177 (≈ 785 µg/mL) | > 200 | > 200 | > 200 | > 200 | > 200 | > 200 | > 200 | > 200 | – | – | – |
| CC[C@H](C)[C@H](NC(=O)[C@@H]1CCCN1C(=O)CNC(=O)[C@H](Cc1ccccc1)NC(=O)[C@H](CC(N)=O)NC(=O)[C@H](CC(N)=O)NC(=O)[C@H](CO)NC(=O)[C@H](CO)NC(=O)[C@H](Cc1c[nH]cn1)NC(=O)[C@H](Cc1c[nH]cn1)NC(=O)[C@H](CC(C)C)NC(=O)[C@H](Cc1ccccc1)NC(=O)[C@H](CCC(=O)O)NC(=O)[C@H](C)NC(=O)[C@H](CC(C)C)NC(=O)[C@H](CCCNC(=N)N)NC(=O)[C@H](CCC(N)=O)NC(=O)[C@@H](NC(=O)[C@H](C)NC(=O)[C@@H]1CSSC[C@H](NC(=O)[C@H](Cc2c[nH]cn2)NC(=O)[C@H](Cc2c[nH]cn2)NC(=O)[C@H](Cc2c[nH]cn2)NC(=O)CC[C@H](NC(=O)CCCCCCCCCCCCCCCCCCC(=O)O)C(=O)O)C(=O)N[C@@H](CC(N)=O)C(=O)N[C@@H]([C@@H](C)O)C(=O)N[C@@H](C)C(=O)N[C@@H]([C@@H](C)O)C(=O)N1)[C@@H](C)O)C(=O)N[C@@H](CC(C)C)C(=O)N1CCC[C@H]1C(=O)N1CCC[C@H]1C(=O)N[C@H](C(=O)N[C@@H](CC(N)=O)C(=O)N[C@H](C(=O)NCC(=O)N[C@@H](CO)C(=O)N[C@@H](Cc1c[nH]cn1)C(=O)N[C@H](C(=O)N[C@@H](Cc1ccc(O)cc1)C(N)=O)[C@@H](C)O)C(C)C)[C@@H](C)O [Example 31, N-alpha-[(S)-4-Carboxy-4-(19-carboxynonadecanoylamino)butyryl]-His-His-[His1,Glu14,His17,His35]-pramlintide] ({C20 diacid-γGlu}-HHHCNTATCATQRLAEFLHHSSNNFGPILPPTNVGSHTY-NH2; disulfide 4-9 (inferred); C-terminus assumed) | > 200 | 8 (≈ 38.1 µg/mL) | – | – | 10 (≈ 47.6 µg/mL) | 65 (≈ 310 µg/mL) | > 200 | > 200 | > 200 | > 200 | – | – | – |
| CC[C@H](C)[C@H](NC(=O)[C@@H]1CCCN1C(=O)CNC(=O)[C@H](Cc1ccccc1)NC(=O)[C@H](CC(N)=O)NC(=O)[C@H](CC(N)=O)NC(=O)[C@H](CO)NC(=O)[C@H](CO)NC(=O)[C@H](Cc1c[nH]cn1)NC(=O)[C@H](Cc1c[nH]cn1)NC(=O)[C@H](CC(C)C)NC(=O)[C@H](Cc1ccccc1)NC(=O)[C@H](CCC(=O)O)NC(=O)[C@H](C)NC(=O)[C@H](CC(C)C)NC(=O)[C@H](CCCNC(=N)N)NC(=O)[C@H](CCC(N)=O)NC(=O)[C@@H](NC(=O)[C@H](C)NC(=O)[C@@H]1CSSC[C@H](NC(=O)[C@H](Cc2c[nH]cn2)NC(=O)[C@H](Cc2c[nH]cn2)NC(=O)[C@H](Cc2c[nH]cn2)NC(=O)CC[C@H](NC(=O)CCCCCCCCCCCCCCCCCCC(=O)O)C(=O)O)C(=O)N[C@@H](Cc2c[nH]cn2)C(=O)N[C@@H]([C@@H](C)O)C(=O)N[C@@H](C)C(=O)N[C@@H]([C@@H](C)O)C(=O)N1)[C@@H](C)O)C(=O)N[C@@H](CC(C)C)C(=O)N1CCC[C@H]1C(=O)N1CCC[C@H]1C(=O)N[C@H](C(=O)N[C@@H](CC(N)=O)C(=O)N[C@H](C(=O)NCC(=O)N[C@@H](CO)C(=O)N[C@@H](Cc1c[nH]cn1)C(=O)N[C@H](C(=O)N[C@@H](Cc1ccc(O)cc1)C(N)=O)[C@@H](C)O)C(C)C)[C@@H](C)O [Example 32, N-alpha-[(S)-4-Carboxy-4-(19-carboxynonadecanoylamino)butyryl]-His-His-[His1,His3,Glu14,His17,His35]-pramlintide] ({C20 diacid-γGlu}-HHHCHTATCATQRLAEFLHHSSNNFGPILPPTNVGSHTY-NH2; disulfide 4-9 (inferred)) | > 200 | 6 (≈ 28.7 µg/mL) | – | – | 6 (≈ 28.7 µg/mL) | 55 (≈ 263 µg/mL) | > 200 | > 200 | > 200 | > 200 | – | – | – |

Further lines, results first:

| solubility at 18 h [1] [µM] | solubility at 18 h [2] [µM] | solubility at 18 h [3] [µM] | solubility at 18 h [4] [µM] | solubility at 18 h [5] [µM] | solubility at 18 h [6] [µM] | solubility at 18 h [7] [µM] | solubility at 18 h [8] [µM] | solubility at 18 h [9] [µM] | solubility at 18 h [10] [µM] | solubility at 18 h (bistrispropane buffer, pH 7, pH 7.0, Table 8, read-out: Solubility pH 7.0) [µM] | solubility at 18 h (bistrispropane buffer, pH 7, pH 7.0, Table 9, read-out: Solubility pH 7.0) [µM] | solubility at 18 h (bistrispropane buffer, pH 7.5, pH 7.5, Table 9, read-out: Solubility pH 7.5) [µM] | SMILES |
| --- | --- | --- | --- | --- | --- | --- | --- | --- | --- | --- | --- | --- | --- |
| > 200 | > 200 | – | 81 (≈ 362 µg/mL) | 50 (≈ 224 µg/mL) | 48 (≈ 215 µg/mL) | > 200 | > 200 | > 200 | > 200 | – | – | – | CC[C@H](C)[C@H](NC(=O)[C@@H]1CCCN1C(=O)CNC(=O)[C@H](Cc1ccccc1)NC(=O)[C@H](CC(N)=O)NC(=O)[C@H](CC(N)=O)NC(=O)[C@H](CO)NC(=O)[C@H](CO)NC(=O)[C@H](Cc1c[nH]cn1)NC(=O)[C@H](CCCNC(=N)N)NC(=O)[C@H](CC(C)C)NC(=O)[C@H](Cc1ccccc1)NC(=O)[C@H](CCC(=O)O)NC(=O)[C@H](C)NC(=O)[C@H](CC(C)C)NC(=O)[C@H](CCCNC(=N)N)NC(=O)[C@H](CCC(N)=O)NC(=O)[C@@H](NC(=O)[C@H](C)NC(=O)[C@@H]1CSSC[C@H](NC(=O)[C@H](CCCCN)NC(=O)CC[C@H](NC(=O)CCCCCCCCCCCCCCCCC(=O)O)C(=O)O)C(=O)N[C@@H](CC(N)=O)C(=O)N[C@@H]([C@@H](C)O)C(=O)N[C@@H](C)C(=O)N[C@@H]([C@@H](C)O)C(=O)N1)[C@@H](C)O)C(=O)N[C@@H](CC(C)C)C(=O)N1CCC[C@H]1C(=O)N1CCC[C@H]1C(=O)N[C@H](C(=O)N[C@@H](CC(N)=O)C(=O)N[C@H](C(=O)NCC(=O)N[C@@H](CO)C(=O)N[C@@H](Cc1c[nH]cn1)C(=O)N[C@H](C(=O)N[C@@H](Cc1ccc(O)cc1)C(N)=O)[C@@H](C)O)C(C)C)[C@@H](C)O [Example 61, N-alpha-[(S)-4-Carboxy-4-(17-carboxyheptadecanoylamino)butyryl]-[Glu14,Arg17,His35]-pramlintide] ({C18 diacid-γGlu}-KCNTATCATQRLAEFLRHSSNNFGPILPPTNVGSHTY-NH2; disulfide 2-7 (inferred)) |
| > 200 | > 200 | > 200 | > 200 | > 200 | > 200 | > 200 | > 200 | > 200 | > 200 | > 200 | > 200 | > 200 | CC[C@H](C)[C@H](NC(=O)[C@@H]1CCCN1C(=O)CNC(=O)[C@H](Cc1ccccc1)NC(=O)[C@H](CC(N)=O)NC(=O)[C@H](CC(N)=O)NC(=O)[C@H](CO)NC(=O)[C@H](CO)NC(=O)[C@H](Cc1c[nH]cn1)NC(=O)[C@H](CCCNC(=N)N)NC(=O)[C@H](CC(C)C)NC(=O)[C@H](Cc1ccccc1)NC(=O)[C@H](CCC(=O)O)NC(=O)[C@H](C)NC(=O)[C@H](CC(C)C)NC(=O)[C@H](CCCNC(=N)N)NC(=O)[C@H](CCC(N)=O)NC(=O)[C@@H](NC(=O)[C@H](C)NC(=O)[C@@H]1CSSC[C@H](NC(=O)[C@H](CCCCN)NC(=O)[C@H](CCC(=O)O)NC(=O)CC[C@H](NC(=O)CCCCCCCCCCCCCCCCCCC(=O)O)C(=O)O)C(=O)N[C@@H](CC(N)=O)C(=O)N[C@@H]([C@@H](C)O)C(=O)N[C@@H](C)C(=O)N[C@@H]([C@@H](C)O)C(=O)N1)[C@@H](C)O)C(=O)N[C@@H](CC(C)C)C(=O)N1CCC[C@H]1C(=O)N1CCC[C@H]1C(=O)N[C@H](C(=O)N[C@@H](CC(N)=O)C(=O)N[C@H](C(=O)NCC(=O)N[C@@H](CO)C(=O)N[C@@H](Cc1c[nH]cn1)C(=O)N[C@H](C(=O)N[C@@H](Cc1ccc(O)cc1)C(N)=O)[C@@H](C)O)C(C)C)[C@@H](C)O [Example 58, N-alpha-[(S)-4-Carboxy-4-(19-carboxynonadecanoylamino)butyryl]-Glu-[Glu14,Arg17,His35]-pramlintide] ({C20 diacid-γGlu}-EKCNTATCATQRLAEFLRHSSNNFGPILPPTNVGSHTY-NH2; disulfide 3-8 (inferred); C-terminus assumed) |
